# Results reported in ChEMBL document CHEMBL1667726, “Macrophyllionium and macrophyllines A and B, oxindole alkaloids from Uncaria macrophylla” (J Nat Prod, 2011).
# Tests used:
# HL-60 = assay: Cytotoxicity against human HL60 cells after 48 hrs by MTT assay; assay type: functional, cell-based; conditions: HL-60, 48 h
# SW480 = assay: Cytotoxicity against human SW480 cells after 48 hrs by MTT assay; assay type: functional, cell-based; conditions: SW480, 48 h
# Aorta [1] = assay: Vasodilatory activity in Sprague-Dawley rat thoracic aorta smooth muscle assessed as inhibition of phenylephrine-induced vasoconstriction; assay type: functional, tissue-based
# Aorta [2] = assay: Vasodilatory activity in Sprague-Dawley rat thoracic aorta smooth muscle assessed as inhibition of KCL-induced vasoconstriction; assay type: functional, tissue-based
Structure (SMILES),IC50 (HL-60) [µM],IC50 (SW480) [µM],IC50 (Aorta [1]) [µg/mL],IC50 (Aorta [2]) [µg/mL]
CC[C@@H]1CN2CC[C@]3(C(=O)Nc4ccccc43)[C@@H]2C[C@@H]1/C(=C\OC)C(=O)OC [CORYNOXINE B],> 40,> 40,> 30,> 30
CC[C@@H]1[C@@H](/C(=C/OC)C(=O)OC)C[C@@H]2N(CC[C@@]23C(=O)Nc2ccccc23)[C@H]1CC(C)=O [MACROPHYLLINE B],> 40,> 40,> 30,> 30
CC[C@@H]1[C@@H](/C(=C/OC)C(=O)OC)C[C@@H]2N(CC[C@]23C(=O)Nc2ccccc23)[C@H]1CC(C)=O [MACROPHYLLINE A],> 40,> 40,15.9,> 30
COc1ccc(CCN(C)CCCC(C#N)(c2ccc(OC)c(OC)c2)C(C)C)cc1OC (stereo not drawn) [VERAPAMIL],,,0.32,1.41
CC[C@@H]1CN2CC[C@@]3(C(=O)Nc4ccccc43)[C@@H]2C[C@@H]1/C(=C\OC)C(=O)OC [CORYNOXINE],> 40,> 40,> 30,> 30
CC[C@H]1CN2CCc3c([nH]c4ccccc34)[C@@H]2C[C@@H]1/C(=C/OC)C(=O)OC [DIHYDROCORYNANTHEINE],> 40,> 40,21.8,6.73
CC[C@H]1CN2CC[C@]3(C(=O)Nc4ccccc43)[C@@H]2C[C@@H]1/C(=C\OC)C(=O)OC [RHYNCHOPHYLLINE],> 40,> 40,> 30,> 30
CC[C@H]1CN2CC[C@@]3(C(=O)Nc4ccccc43)[C@@H]2C[C@@H]1/C(=C\OC)C(=O)OC [ISORHYNCHOPHYLLINE],> 40,> 40,18.4,> 30
CC[C@@H]1CN2CCc3c([nH]c4ccccc34)[C@@H]2C[C@@H]1/C(=C/OC)C(=O)OC [CORYNANTHEIDINE],14,23.3,> 30,> 30
CC[C@H]1C[N@@+]2(C)CC[C@]3(C([O-])=Nc4ccccc43)[C@H]2C[C@@H]1/C(=C/OC)C(=O)OC [MACROPHYLLIONIUM],> 40,> 40,> 30,> 30
